In patent US20230190663A1, “PRUSSIAN BLUE NANOPARTICLES FUNCTIONALIZATION WITH LATENCY REVERSING AGENTS AND BROADLY NEUTRALIZING ANTIBODIES, AND APPLICATIONS THEREOF” (THE GEORGE WASHINGTON UNIVERSITY, priority 2020, published 2023):

Columns and labels:
[1] = system: peripheral blood mononuclear cells (PBMCs); experiment: Flow cytometry of immune cell ratios and activation in treated PBMCs; assay type: cell-based, human; conditions: compared to untreated PBMCs, FIG. 6G
Experimental: Example 4. Primary peripheral blood mononuclear cells (PBMCs) were isolated from blood collected from healthy human donors. PBMCs were incubated with increasing concentrations of Poly-PBNP (50, 5 and 1 μg/mL of attached PolyIC) and same concentrations of Free-Poly I:C overnight. PMA (Phorbol 12-myristate 13-acetate), a known immune-stimulator, was used as positive control herein. Following this treatment, the number of viable cells was assessed.
Treated PBMCs were subjected to flow cytometry to examine ratios of immune cells in response to Poly-PBNP and Free-Poly I:C treatments. […] There was no change in the amount of NK cells (CD56+ cells) for any of the treatment groups studied, compared to untreated PBMCs (FIG. 6F).

J-LAT cells [2] = experiment: Viability / cytotoxicity of treated J-LAT cells; conditions: 1-15 μL, not transfected, FIG. 4B
Experimental: Example 3. […] J-LAT cells harbor latent, transcriptionally competent HIV provirus that encodes green fluorescent protein (GFP) as an indicator of HIV-1 reactivation. […] Generally for effective latency reversal, free Poly I:C has to be delivered into the cytoplasm of the latently infected cells via transfection.
Next, J-LAT cells were treated with increasing concentrations of Citrate-PBNP, PEI-PBNP or polyIC-PBNP (1 μL, 5 μL, 10 μL and 15 μL with [PBNP]=2 mg/mL and [polyIC]=0.5 mg/mL) where the PBNPs were added to the cell media (i.e., the PBNPs were not transfected into the cells).

J-LAT cells [3] = experiment: Latency reversal (GFP expression) in J-LAT cells, a model of latent HIV cells; assay type: cell-based
Experimental: To determine the efficiency of free Poly I:C compared to PolyIC-PBNPs on HIV reactivation, increasing concentrations were added to J-LAT cells. Specifically, nanoparticles (PolyIC-PBNP) were generated at varying Poly I:C concentrations (1.75, 1, 1.5 and 0.75 mg/mL) and added to the cell culture medium to treat the J-LAT cells.

For “polyinosinic-polycytidylic acid [Free Poly I:C]”, the “NK cells activation (CD56+CD69+)” value [1] was “no changes”, the “cytotoxicity at increasing concentrations” value (J-LAT cells [2]) was “caused cytotoxicity at higher concentrations” and the “Hill Slope (best-fit value)” value (J-LAT cells [3]; HIV reactivation in J-LAT cells, overnight, log(agonist) vs. normalized response, variable slope) was 1.904. For the same substance, the “latency reversal at increasing concentrations” value (J-LAT cells [3]; J-LAT cells, 1, 5, 10 and 15 μL added to cell media, not transfected, FIG. 4A) was “reversed latency in a dose dependent manner” and the “EC50 of HIV reactivation (GFP expression)” value (J-LAT cells [3]; J-LAT cells, overnight incubation, Table 1 prints none) was 6.944 µg/mL.
